Measurements: PMC12005787, “Synthetic Lethality of SHP2 and XIAP Suppresses Proliferation and Metastasis in KRAS‐mutant Nonsmall Cell Lung Cancer” (Advanced Science, 2025)

Experiments:
NCI‐H2122 and A549 cells = test: Cell scratch and cell migration assays; type: cell-based, human; settings: 24 h
Description: supplies are listed in Supplementary Table S5. The relevant reagents for protein extraction from Escherichia coli are listed in Supplementary Table S6. Inhibitory effects of embelin on KRAS-mutant and wild-type cells are listed in Supplementary Table S7.
For the adherent cell viability assay, cells in the logarithmic growth phase were seeded in 96-well culture plates at a density of 5×103 well-1 and incubated overnight. Diluted compounds or DMSO were added, or specific treatments were incubated at 37 °C and 5% CO2 for 24 h or 48 h. Cell viability was determined using CCK-8 or CellLightTM Cell Viability Assay Kit, according to the manufacturer's protocol. The luminescence signals of the treated samples were normalized to those of the DMSO group.
For spherical cell viability assays, cells in the logarithmic growth phase were inoculated ata density of 4×10^3 well-1 into 96-well spherical cell microplates and incubated at 37 °C, 5% CO2 for 24 h or 48 h. Cell viability was measured using the CellTiter-Glo® Luminescent Cell Viability 3D Cell Viability Assay Kit, according to the manufacturer’s protocol. […]
Finally, the staining results were recorded using an inverted microscope. […]
NCI-H2122 and A549 cells were seeded in six-well plates. […] Finally, the scratch was photographed using an inverted microscope and the wound healing status was recorded. […]

NCI‐H2122 cells = test: ROS release assay; type: cell-based, human; settings: 24 h
Description: incubated with a horseradish peroxidase (HRP)-conjugated secondary antibody at room
temperature for 2 h and then incubated with enhanced chemiluminescence (ECL) solutions for
15 s at room temperature. A fully automated gel imaging system (General Electric Company,
USA) was used for the exposure imaging.
NCI-H2122 cells were inoculated into 96-well plates specialized for high-content cell
imaging, treated with various drugs, fixed with 4% neutral formaldehyde, and sealed with 5%
BSA after permeabilization with 0.05% Triton X-100. Subsequently, the cells were incubated
with the given primary antibody overnight at 4 °C and then with corresponding fluorescent
secondary antibody in dark at room temperature for 1 h. […] (DAPI)
was applied to nuclear staining. Fluorescence images were captured using a high-content
analyzer (Thermo Scientific, USA).
NCI-H2122 cells treated with the given disposal were digested with trypsin, resuspended
in cold PBS, and centrifuged at room temperature (1000×g for 5 min) to discard the
supernatant. […]
RNaseA) was incubated in dark at 37℃ for 30 min. Red fluorescence and light scattering
were detected by flow cytometry at 488 nm. Cell cycle results were analyzed and visualized […]
intracellular ROS levels were detected by flow cytometry (λa = 488 nm, λe = 525 nm). […]
sealed with a DAPI-containing anti-fluorescence quenching sealer for 30 min at room […]

CCCCCCCCCCCC1=C(O)C(=O)C=C(O)C1=O [Embelin]
effect on cell mobility / migration (NCI‐H2122 and A549 cells): potently inhibit the migration capabilities | effect on ROS release (NCI‐H2122 cells): promoted ROS release

CC1(N)CCN(c2cnc(-c3cccc(Cl)c3Cl)c(N)n2)CC1 [SHP099]
effect on cell mobility / migration (NCI‐H2122 and A549 cells): poor effect on cell mobility | effect on ROS release (NCI‐H2122 cells): promoted ROS release
